From patent US10202372B2, “Trisubstituted pyrido[2,3-D]pyrimidines, methods for preparing same and therapeutic uses thereof” (CENTRE NATIONAL DE LA RECHERCHE SCIENTIFIQUE (C.N.R.S), priority 2012, dated 2019) come the findings set out here.

A value given as a limit tells only on which side of the number the result lay.

The term IC50 denotes the midpoint of a concentration-inhibition curve. What is called melting point is the temperature of the solid-liquid transition.

For one series, the target named is PI3Kα (Homo sapiens, UniProt P42336). The series can be described thus: PI3Kα kinase activity, Adapta TR-FRET ADP detection. The format is biochemical. Particulars: purified p110α/p85α heterodimer, triplicate; read-out: Kinases IC50 PI3Kα.
The test system of another series is HUH7. The series can be described thus: Toxicity test on cells, HUH7. The class given is cell-based. Particulars: Homo sapiens, Huh-7; 48 hours of treatment, Hoechst nuclei staining. The gist of the method:
(§1)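 Nuclei counted by imaging after Hoechst staining of cells fixed 20 min in cold ethanol/acetic acid (90/5). Prior treatment: 48 h with 0.1–25 μM compound, added one day after plating 4×10^3 cells/well.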

The test system of a further series is CaCo2. Kind of series: Toxicity test on cells, CaCo2. The class given is cell-based. Particulars: Homo sapiens, Caco-2; 48 hours of treatment, Hoechst nuclei staining. Summed up: as §1
A further series concerns MDA. Kind of series: Toxicity test on cells, MDA. The format is cell-based. Particulars: 48 hours of treatment, Hoechst nuclei staining.
The next series relates to HCT116. Kind of series: Toxicity test on cells, HCT116. The format is cell-based. Particulars: Homo sapiens, HCT-116; 48 hours of treatment, Hoechst nuclei staining. Summed up:
as §1

The next series deals with PC3. The series can be described thus: Toxicity test on cells, PC3. The format is cell-based. Particulars: Homo sapiens, PC-3; 48 hours of treatment, Hoechst nuclei staining. The gist of the method: as §1
The test system of another series is NCl. The series can be described thus: Toxicity test on cells, NCl. The class given is cell-based. Particulars: 48 hours of treatment, Hoechst nuclei staining. The gist of the method:
as §1

The subject of a further series is HacaT. The series can be described thus: Toxicity test on cells, HacaT. The class given is cell-based. Particulars: Homo sapiens, 48 hours of treatment, Hoechst nuclei staining. How it is done:
The compounds according to the invention were also tested on the cell lines HuH7, CaCo-2, HCT116, PC3, NCl, HacaT and Fibroblasts.
Operating Procedure: The cells were cultivated according to the ECACC recommendations. The toxicity test of the compounds on these cells was conducted as follows: 4×10^3 cells/well were sown in 96 wells. 24 hours after sowing the cells, the cells were exposed to increased concentrations of the compounds (0.1 μM-0.3 μM-0.9 μM-2.7 μM-8.3 μM-25 μM). After 48 hours of treatment, the cells were washed in PBS and bound in a cold ethanol/acetic acid (90/5) mixture for 20 minutes. Next, the nuclei were coloured with […] (Sigma). The acquisition of images and the analysis was carried out by means of a reader Cellomics ArrayScan VTI/HCS (Thermo Scientific).

The next series concerns Fibroblasts. The series can be described thus: Toxicity test on cells, Fibroblasts. The format is cell-based. Particulars: Fibroblast; 48 hours of treatment, Hoechst nuclei staining. The gist of the method:
as §1

A further series has as its target PI3Kγ (Homo sapiens, UniProt P48736). Kind of series: PI3Kγ kinase activity, Adapta TR-FRET ADP detection. The class given is biochemical. Particulars: p110γ catalytic subunit; read-out: Kinases IC50 PI3Kγ. In general terms: Time-resolved FRET reads energy transfer from a long-lived donor to a nearby acceptor.
A further series deals with PI3Kδ (Homo sapiens, UniProt O00329). The series can be described thus: PI3Kδ kinase activity, Adapta TR-FRET ADP detection. The class given is biochemical. Particulars: purified p110δ/p85α heterodimer; read-out: Kinases IC50 PI3Kδ.
The target of a further series is mTOR (Homo sapiens, UniProt P42345). Kind of series: mTOR kinase activity, LANCE Ultra TR-FRET. The class given is biochemical. Particulars: truncated mTOR protein, triplicate; read-out: Kinases IC50 mTOR. Summed up: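 Truncated mTOR (aa 1-1359), 40 μM ATP and 200 μM unphosphorylated peptide (solution concentrations before mixing) in HEPES pH 7.5 with MnCl2/MgCl2, 120 min at room temperature, triplicates. Stopped with EDTA; Eu-labelled anti-phosphopeptide antibody, TR-FRET read at 665 nm; IC50 taken as 50% signal change.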
Chain of mTOR (P42345 1360-2549): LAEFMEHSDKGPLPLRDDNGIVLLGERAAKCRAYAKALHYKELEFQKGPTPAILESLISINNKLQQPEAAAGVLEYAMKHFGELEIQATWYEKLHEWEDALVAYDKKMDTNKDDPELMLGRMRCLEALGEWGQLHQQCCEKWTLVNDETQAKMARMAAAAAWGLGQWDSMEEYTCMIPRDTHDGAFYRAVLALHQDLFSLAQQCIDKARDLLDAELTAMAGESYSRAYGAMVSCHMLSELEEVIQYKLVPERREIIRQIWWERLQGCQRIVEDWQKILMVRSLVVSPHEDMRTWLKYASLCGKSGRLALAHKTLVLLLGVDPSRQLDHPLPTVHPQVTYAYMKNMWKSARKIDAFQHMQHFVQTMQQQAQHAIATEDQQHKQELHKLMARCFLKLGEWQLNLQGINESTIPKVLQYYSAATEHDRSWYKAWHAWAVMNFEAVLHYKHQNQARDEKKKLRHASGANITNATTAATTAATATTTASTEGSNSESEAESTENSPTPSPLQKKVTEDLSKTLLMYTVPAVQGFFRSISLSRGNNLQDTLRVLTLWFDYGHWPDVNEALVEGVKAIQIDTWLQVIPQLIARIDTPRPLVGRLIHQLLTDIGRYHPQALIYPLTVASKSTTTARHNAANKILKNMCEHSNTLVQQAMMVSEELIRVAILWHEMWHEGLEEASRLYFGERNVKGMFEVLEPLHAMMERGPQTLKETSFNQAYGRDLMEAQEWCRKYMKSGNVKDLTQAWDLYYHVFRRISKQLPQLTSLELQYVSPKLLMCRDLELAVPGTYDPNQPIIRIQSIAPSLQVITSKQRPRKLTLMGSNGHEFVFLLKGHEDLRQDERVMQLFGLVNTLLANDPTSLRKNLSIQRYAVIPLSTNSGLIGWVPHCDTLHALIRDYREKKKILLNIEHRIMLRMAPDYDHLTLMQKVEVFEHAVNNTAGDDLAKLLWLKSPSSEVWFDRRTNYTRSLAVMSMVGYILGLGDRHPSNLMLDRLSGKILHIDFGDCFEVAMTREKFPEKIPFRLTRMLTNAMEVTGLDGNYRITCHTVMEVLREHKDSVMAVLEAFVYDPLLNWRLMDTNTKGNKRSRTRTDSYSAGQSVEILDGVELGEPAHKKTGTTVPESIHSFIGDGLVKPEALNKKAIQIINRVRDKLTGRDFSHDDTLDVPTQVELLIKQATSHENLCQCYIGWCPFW

Chain of PI3Kδ (O00329 whole entry, the tested form may be a part): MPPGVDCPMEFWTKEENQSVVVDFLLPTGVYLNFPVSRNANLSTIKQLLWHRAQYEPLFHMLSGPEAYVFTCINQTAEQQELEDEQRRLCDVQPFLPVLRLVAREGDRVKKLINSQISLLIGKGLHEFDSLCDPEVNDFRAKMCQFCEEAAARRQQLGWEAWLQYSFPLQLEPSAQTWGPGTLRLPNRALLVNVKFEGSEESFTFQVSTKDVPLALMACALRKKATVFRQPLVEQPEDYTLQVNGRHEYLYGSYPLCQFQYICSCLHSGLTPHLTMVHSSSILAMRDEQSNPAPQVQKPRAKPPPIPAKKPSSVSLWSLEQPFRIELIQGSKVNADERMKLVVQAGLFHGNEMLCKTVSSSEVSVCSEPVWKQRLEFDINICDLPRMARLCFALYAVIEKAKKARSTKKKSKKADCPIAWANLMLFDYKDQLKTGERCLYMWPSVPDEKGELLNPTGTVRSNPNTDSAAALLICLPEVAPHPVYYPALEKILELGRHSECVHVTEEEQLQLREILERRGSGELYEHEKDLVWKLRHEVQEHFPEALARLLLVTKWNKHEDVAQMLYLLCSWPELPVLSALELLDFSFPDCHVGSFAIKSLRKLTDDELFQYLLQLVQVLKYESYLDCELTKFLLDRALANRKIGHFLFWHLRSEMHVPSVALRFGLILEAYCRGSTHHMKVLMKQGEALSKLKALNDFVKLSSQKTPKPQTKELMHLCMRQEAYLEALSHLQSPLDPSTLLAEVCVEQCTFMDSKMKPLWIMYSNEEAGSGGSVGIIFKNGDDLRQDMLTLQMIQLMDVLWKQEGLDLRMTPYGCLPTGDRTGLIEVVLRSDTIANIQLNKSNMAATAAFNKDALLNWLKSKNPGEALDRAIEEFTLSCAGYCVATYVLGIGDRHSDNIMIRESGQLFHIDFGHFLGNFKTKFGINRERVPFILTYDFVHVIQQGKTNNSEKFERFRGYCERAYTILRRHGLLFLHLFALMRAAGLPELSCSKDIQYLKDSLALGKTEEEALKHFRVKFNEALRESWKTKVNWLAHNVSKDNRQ
Chain of PI3Kδ (P27986 whole entry partner, the tested form may be a part): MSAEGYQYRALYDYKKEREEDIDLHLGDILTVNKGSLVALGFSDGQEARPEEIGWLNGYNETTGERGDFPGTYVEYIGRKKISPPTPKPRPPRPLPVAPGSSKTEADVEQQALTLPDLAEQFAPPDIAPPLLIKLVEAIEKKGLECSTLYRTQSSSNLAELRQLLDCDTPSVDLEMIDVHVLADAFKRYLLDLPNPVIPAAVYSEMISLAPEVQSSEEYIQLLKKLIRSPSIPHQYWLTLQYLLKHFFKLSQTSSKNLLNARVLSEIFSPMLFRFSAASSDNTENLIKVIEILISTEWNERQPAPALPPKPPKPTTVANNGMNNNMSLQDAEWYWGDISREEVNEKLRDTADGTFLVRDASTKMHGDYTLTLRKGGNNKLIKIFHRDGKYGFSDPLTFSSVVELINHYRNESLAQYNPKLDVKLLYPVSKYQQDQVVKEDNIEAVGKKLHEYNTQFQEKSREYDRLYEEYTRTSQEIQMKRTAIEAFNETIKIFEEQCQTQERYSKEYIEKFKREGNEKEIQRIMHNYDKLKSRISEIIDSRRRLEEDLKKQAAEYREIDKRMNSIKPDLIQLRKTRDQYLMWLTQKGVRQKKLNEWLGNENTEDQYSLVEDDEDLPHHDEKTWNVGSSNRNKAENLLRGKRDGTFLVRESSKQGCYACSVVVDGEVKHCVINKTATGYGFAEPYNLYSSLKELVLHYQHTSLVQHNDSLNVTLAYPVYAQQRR
Chain of PI3Kα (P42336 whole entry): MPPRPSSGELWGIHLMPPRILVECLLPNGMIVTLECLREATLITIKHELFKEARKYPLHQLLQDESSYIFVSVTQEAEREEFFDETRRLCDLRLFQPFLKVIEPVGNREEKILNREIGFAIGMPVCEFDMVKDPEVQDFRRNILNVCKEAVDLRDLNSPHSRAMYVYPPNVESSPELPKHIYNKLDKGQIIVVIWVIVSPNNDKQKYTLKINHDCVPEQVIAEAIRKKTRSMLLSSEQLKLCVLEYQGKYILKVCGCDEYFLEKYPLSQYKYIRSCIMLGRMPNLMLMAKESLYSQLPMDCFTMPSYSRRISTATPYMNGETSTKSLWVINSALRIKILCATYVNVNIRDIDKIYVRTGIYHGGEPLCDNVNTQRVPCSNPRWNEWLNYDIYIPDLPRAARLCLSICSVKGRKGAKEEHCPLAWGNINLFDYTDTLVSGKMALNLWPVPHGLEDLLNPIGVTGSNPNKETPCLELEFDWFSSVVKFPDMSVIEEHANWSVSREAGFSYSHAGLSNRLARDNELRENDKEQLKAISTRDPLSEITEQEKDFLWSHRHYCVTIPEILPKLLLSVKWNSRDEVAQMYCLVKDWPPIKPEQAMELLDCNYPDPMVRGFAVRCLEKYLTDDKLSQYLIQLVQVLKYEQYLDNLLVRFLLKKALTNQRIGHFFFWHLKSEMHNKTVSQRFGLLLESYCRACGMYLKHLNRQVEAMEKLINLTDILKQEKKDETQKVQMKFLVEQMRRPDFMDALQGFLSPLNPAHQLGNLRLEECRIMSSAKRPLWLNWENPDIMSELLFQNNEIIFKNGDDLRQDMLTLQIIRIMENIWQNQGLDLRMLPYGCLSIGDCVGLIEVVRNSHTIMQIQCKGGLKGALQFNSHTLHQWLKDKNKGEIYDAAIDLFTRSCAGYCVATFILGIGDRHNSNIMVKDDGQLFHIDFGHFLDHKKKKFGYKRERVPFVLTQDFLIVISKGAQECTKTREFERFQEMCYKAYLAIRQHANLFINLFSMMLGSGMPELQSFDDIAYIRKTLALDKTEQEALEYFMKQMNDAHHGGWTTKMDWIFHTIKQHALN
Chain of PI3Kα (P27986 whole entry partner): as the sequence (P27986 whole entry partner, the tested form may be a part) above

On to `O=C(Nc1ccc(CO)cc1)Nc1ccc(-c2nc(N3CCOCC3)c3ncc(CN4CCOCC4)cc3n2)cc1` [Compound 78, 1-[4-(hydroxymethyl)phenyl]-3-{4-[4-(morpholin-4-yl)-7-(morpholin-4 ylmethyl)pyrido[3,2-d]pyrimidin-2-yl]phenyl}urea], for which the melting point was over 260 °C. Also, on PI3Kα, the IC50 came out at 0.023 µM. In the series with HUH7, this compound came in with an IC50 of 2 µM. The same compound had an IC50 in the series on CaCo2 of 12 µM. Also, the IC50 in the series on MDA turned out to be 3 µM. In the series with HCT116, this compound gave an IC50 of 1 µM. In the series with PC3, this compound returned a half-maximal inhibitory concentration (IC50) of 2 µM. It took 3 µM to reach half-maximal inhibition in the series with NCl (IC50). In the series with HacaT, this compound came in with an IC50 of 2 µM. Also, the IC50 in the series on Fibroblasts is over 25 µM.

For the compound `Oc1ccc(-c2nc(N3CCOCC3)c3ncc(Cl)cc3n2)cc1` [Compound 7, 4-(7-Chloro-4-morpholinopyrido[3,2-d]pyrimidin-2-yl)phenol], the melting point was in the range of 253 to 254 °C. On PI3Kα, the IC50 was determined as 15.2 µM. Further, on PI3Kγ, the half-maximal inhibitory concentration (IC50) was over 50 µM. In addition, on PI3Kδ, the IC50 came to 1.5 µM. For the same compound, the IC50 at mTOR turned out to be 0.184 µM. Besides, the IC50 in the series on HUH7 came out at 25 µM. The compound also returned a half-maximal inhibitory concentration (IC50) in the series with CaCo2 of 25 µM. In the series on MDA, this compound gave an IC50 of 25 µM. The compound further showed a half-maximal inhibitory concentration (IC50) in the series on HCT116 of over 25 µM. The IC50 with PC3 turned out to be 25 µM. This compound showed a 50% inhibitory concentration (IC50) in the series with NCl of over 25 µM. The compound further gave a half-maximal inhibitory concentration (IC50) in the series with Fibroblasts of over 25 µM.

As to `COc1ccc(-c2nc(N3CCOCC3)c3ncc(Cl)cc3n2)cc1` [Compound 9, 4-(7-chloro-2-(4-methoxyphenyl)pyrido[3,2-d]pyrimidin-4-yl)morpholine], the melting point turned out to be 176 °C. For the same compound, the IC50 at PI3Kα came to 6.2 µM. At PI3Kγ, the half-inhibitory concentration (IC50) came to 3.1 µM. On PI3Kδ, the IC50 turned out to be 0.363 µM. In addition, the IC50 at mTOR is over 50 µM. The compound also yielded a half-maximal inhibitory concentration (IC50) in the series with HUH7 of over 25 µM. In the series on CaCo2, the IC50 is over 25 µM. In addition, the concentration for half-maximal inhibition (IC50) in the series with MDA was over 25 µM. The half-inhibitory concentration (IC50) with HCT116 was over 25 µM. Also, the half-maximal inhibitory concentration (IC50) with PC3 was over 25 µM. For the same compound, the half-inhibitory concentration (IC50) in the series on NCl was over 25 µM. Besides, the IC50 with HacaT was over 25 µM. The compound further showed an IC50 in the series with Fibroblasts of over 25 µM.

In turn, `C=Cc1cnc2c(N3CCOCC3)nc(-c3ccc(O)cc3)nc2c1` [Compound 16, 4-(4-Morpholino-7-vinylpyrido[3,2-d]pyrimidin-2-yl)phenol] showed a melting point of over 260 °C. Also, the IC50 at PI3Kα turned out to be 1.6 µM. Besides, the IC50 at PI3Kγ turned out to be 1.7 µM. Besides, on PI3Kδ, the half-maximal inhibitory concentration (IC50) came out at 2.1 µM. Also, the IC50 at mTOR was 0.37 µM. Also, the IC50 with HUH7 is over 25 µM. This compound also showed an IC50 in the series with CaCo2 of over 25 µM. The same compound returned an IC50 in the series with MDA of over 25 µM. Besides, the IC50 in the series with HCT116 was over 25 µM. This compound gave a half-inhibitory concentration (IC50) with PC3 of over 25 µM. The compound also gave an IC50 with NCl of over 25 µM. This compound also had an IC50 with HacaT of over 25 µM. This compound showed a half-inhibitory concentration (IC50) in the series with Fibroblasts of over 25 µM.
